The values below come from US20260356823A1, “SODIUM CHANNEL REGULATOR AND USE THEREOF” (SHANGHAI HUILUN PHARMACEUTICAL CO., LTD., priority 2022, published 2026).

For data set [1], the target named is T1, human Nav1.8 (Homo sapiens, UniProt Q9Y5Y9).
T1 construct: expressed in transfected cells
The data set is described as follows: In vitro inhibition of Nav1.8, manual patch clamp on HEK293 cells stably expressing human Nav1.8. To be noted: human Nav1.8, manual patch clamp; for inhibition at 0.1 µM: HEK293, 100 nM, read-out: Inhibitory activity (inhibition/% at 100 nM concentration). In kind it is cell-based. On the procedure:
Bioactivity Test 1: In Vitro Inhibition of Nav1.8 by the Compound
By using a manual patch clamp on HEK293 cells stably expressing human Nav1.8, currents on Nav1.8 before and after administration of the compound were compared after the currents on Nav1.8 were stable, to obtain the effect of the compound on the Nav1.8 channel.
The to-be-tested compound was dissolved in DMSO to prepare a 9 mM stock solution, which was taken and dissolved in extracellular fluid at a desired concentration on the day of testing. The extracellular fluid included the following ingredients (mM): NaCl, 137; KCl, 4; CaCl2, 1.8; MgCl2, 1; HEPES, 10; glucose, 10; and pH 7.4 (NaOH titration). All reagents were purchased from Sigma (St. Louis, MO).
The cells were clamped at −80 mV and depolarized with a sustained 10 ms square wave to 10 mV to obtain a current on Nav1.8. This process was repeated every 5 seconds. A maximum current caused by the square wave was detected. After the current is stable, the to-be-tested compound (dissolved in the extracellular fluid at the desired concentration) was perfused. After the current is stable, the strength of blocking Nav1.8 by the compound was calculated based on the currents before and after perfusion of the compound. pCLAMP 10 (Molecular Devices, Union City, CA) was used. That the current is stable means that the current changes over time within a limited range.

For data set [2], the target named is T2, Nav1.8 sodium channel (Homo sapiens, UniProt Q9Y5Y9).
T2 construct: expressed in transfected cells
The data set is described as follows: In vitro inhibition IC50 of Nav1.8, whole-cell patch clamp on CHO cell line stably expressing Nav1.8 (SCN10A, NM_006514). In kind it is cell-based. As to conditions: CHO cells stably expressing Nav1.8, whole-cell patch clamp, room temperature. An excerpt:
Bioactivity Test 2: In Vitro Inhibition IC50 of Nav1.8 by the Test Compound
A CHO cell line stably expressing the Nav1.8 sodium channel was used for experimental assays with the following gene information: Sodium channel, voltage-gated, type 8, alpha (SCN10A), cDNA strictly similar to GenBank accession number: NM_006514.
Before the patch clamp assay, the cells were detached with 0.25%-Trypsin-EDTA, and 6.5×10^3 cells were spread onto cover slips and cultured in a 24-well plate (final volume: 500 μL) for 18 h. Then, the assay was carried out.
Fluids for electrophysiological recording included: extracellular fluid: K-007-1, 140 mM NaCl, 3.5 mM KCl, 1 mM MgCl2·6H2O, 2 mM CaCl2·2H2O, 10 mM D-Glucose, 10 mM HEPES, 1.25 mM NaH2PO4·2H2O, and NaOH for adjustment to pH=7.4; and intracellular fluid: Nav-001-2, 50 mM CsCl, 10 mM NaCl, 10 mM HEPES, 60 mM CsF, 20 mM EGTA, and […]. The extracellular fluid was stored for 2 weeks. The intracellular fluid was prepared and dispensed as 1 mL per tube, and frozen in a refrigerator at −20° C. Freshly thawed intracellular fluid was used for daily experiments. All intracellular fluids have to be used up within three months. Beyond three months, the old intracellular fluid has to be discarded, and the intracellular fluid needs to be prepared again.
Patch clamp assay: Whole-cell patch-clamp recording Nav1.8 sodium currents under voltage stimulation was carried out as follows: When a whole-cell seal was formed, the cell was clamped at a voltage of −120 mV and maintained for 30 ms. The cell was depolarized from the clamping voltage to 0 mV and maintained for 50 ms. Then, the voltage was restored to −50 mV (for a specific voltage, refer to a half-inactivation voltage from an IV test) and maintained for 5 s. Next, the cell membrane potential was restored to −120 mV and maintained for 20 ms. Then, the cell was depolarized to 0 mV and maintained for 50 ms. Finally, the voltage was restored to the clamping voltage −120 mV and maintained for 30 ms. Data was collected at […]. The effect of the drug on a peak sodium current was observed. Experimental data was collected by an EPC 10 amplifier (HEKA) and stored in PatchMaster (HEKA) software.
A capillary glass tube was pulled into a recording electrode by using a microelectrode puller. The electrode filled with the intracellular fluid was loaded into an electrode holder. A microelectrode manipulator was manipulated under an inverted microscope to immerse the electrode into the extracellular fluid, and an electrode resistance (Rpip) was recorded. The electrode was brought into contact with the cell surface, and suction was applied under negative pressure to form a high-resistance seal (GQ). In this case, fast capacitance compensation was carried out, and negative pressure was then applied to break the cell membrane through suction to form a whole-cell recording mode. Then, slow capacitance compensation was carried out, and experimental parameters such as a membrane capacitance (Cm) and a series resistance (Rs) were recorded. No leakage compensation was carried out.
The drug was administered after the Nav1.8 current obtained by whole-cell recording. The drug acted at each concentration for 5 min (or until the current was stable), and then the drug was tested at a next concentration. Each test compound was tested for multiple concentrations. The cover slips with the cells spread were placed in a recording bath under an inverted microscope. A blank control extracellular fluid and a working solution of the to-be-tested compound were perfused by gravity through the recording bath into the cells from low concentration to high concentration. Fluid exchange was carried out by using a peristaltic pump during the recording. A current detected for each cell in the compound-free extracellular fluid served as its own control. For each concentration, at least three cells were tested independently for three times. […]

For data set [3] the following is noted: background; cited from earlier work.
For data set [4], the system named is Nav1.8. As to conditions: background; cited from earlier work.

T1 sequence (Q9Y5Y9 whole entry): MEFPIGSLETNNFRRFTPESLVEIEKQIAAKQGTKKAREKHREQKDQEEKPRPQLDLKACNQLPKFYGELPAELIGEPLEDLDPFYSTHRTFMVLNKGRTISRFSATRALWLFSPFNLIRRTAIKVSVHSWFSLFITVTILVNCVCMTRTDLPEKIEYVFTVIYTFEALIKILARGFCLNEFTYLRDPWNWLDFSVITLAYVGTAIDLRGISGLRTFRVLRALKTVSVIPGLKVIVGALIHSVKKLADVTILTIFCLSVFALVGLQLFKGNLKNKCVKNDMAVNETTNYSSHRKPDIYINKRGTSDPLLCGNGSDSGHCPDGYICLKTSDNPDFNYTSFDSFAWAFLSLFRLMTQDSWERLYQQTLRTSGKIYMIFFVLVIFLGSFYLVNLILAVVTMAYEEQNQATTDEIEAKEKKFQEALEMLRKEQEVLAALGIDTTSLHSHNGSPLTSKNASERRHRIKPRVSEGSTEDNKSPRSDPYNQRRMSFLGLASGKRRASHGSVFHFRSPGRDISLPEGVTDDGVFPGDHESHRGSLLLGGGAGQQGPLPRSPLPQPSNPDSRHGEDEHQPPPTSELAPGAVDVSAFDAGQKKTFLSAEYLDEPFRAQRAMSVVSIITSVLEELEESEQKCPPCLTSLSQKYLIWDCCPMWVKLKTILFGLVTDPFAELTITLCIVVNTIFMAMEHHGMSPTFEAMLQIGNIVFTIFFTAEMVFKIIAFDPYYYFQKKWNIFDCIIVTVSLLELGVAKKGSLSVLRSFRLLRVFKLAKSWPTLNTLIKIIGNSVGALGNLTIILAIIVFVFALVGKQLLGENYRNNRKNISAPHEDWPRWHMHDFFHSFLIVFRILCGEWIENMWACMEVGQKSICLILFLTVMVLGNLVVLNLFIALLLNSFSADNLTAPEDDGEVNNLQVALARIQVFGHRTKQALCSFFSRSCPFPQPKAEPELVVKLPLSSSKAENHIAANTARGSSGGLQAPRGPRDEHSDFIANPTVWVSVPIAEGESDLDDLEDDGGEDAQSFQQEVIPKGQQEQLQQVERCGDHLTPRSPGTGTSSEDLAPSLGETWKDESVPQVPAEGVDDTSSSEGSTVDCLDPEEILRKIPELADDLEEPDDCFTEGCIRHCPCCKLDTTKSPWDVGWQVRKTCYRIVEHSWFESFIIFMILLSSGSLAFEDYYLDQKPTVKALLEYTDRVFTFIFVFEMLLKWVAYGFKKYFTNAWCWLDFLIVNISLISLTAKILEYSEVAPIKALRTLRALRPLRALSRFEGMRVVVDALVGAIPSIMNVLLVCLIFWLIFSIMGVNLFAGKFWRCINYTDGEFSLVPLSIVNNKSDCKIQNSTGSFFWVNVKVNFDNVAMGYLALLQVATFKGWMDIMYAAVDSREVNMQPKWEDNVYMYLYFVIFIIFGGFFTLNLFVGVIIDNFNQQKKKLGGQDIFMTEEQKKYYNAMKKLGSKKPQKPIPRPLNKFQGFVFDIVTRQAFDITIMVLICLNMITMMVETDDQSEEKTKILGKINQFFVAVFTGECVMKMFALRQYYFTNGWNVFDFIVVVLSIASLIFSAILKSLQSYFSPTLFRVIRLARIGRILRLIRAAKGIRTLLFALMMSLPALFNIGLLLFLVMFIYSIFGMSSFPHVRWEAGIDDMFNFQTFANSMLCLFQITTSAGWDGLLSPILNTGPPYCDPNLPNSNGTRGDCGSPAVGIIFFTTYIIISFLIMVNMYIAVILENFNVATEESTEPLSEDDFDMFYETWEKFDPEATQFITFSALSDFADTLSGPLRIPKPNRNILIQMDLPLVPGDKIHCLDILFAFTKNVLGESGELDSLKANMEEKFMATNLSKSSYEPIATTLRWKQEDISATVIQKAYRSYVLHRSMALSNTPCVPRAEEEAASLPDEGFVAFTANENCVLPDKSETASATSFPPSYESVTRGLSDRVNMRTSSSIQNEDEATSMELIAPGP
T2 sequence (Q9Y5Y9 whole entry): as above

Turning to `COc1c([C@H]2[C@H](C(=O)Nc3ccc4c(c3)NC(=O)C4)O[C@@](C)(C(F)(F)F)[C@H]2C)ccc(F)c1F` (relative stereo) [Example 2], the inhibition at 0.1 µM in data set [1] was not below 50%. The same compound yielded an IC50 in data set [2] of 67 nM.
For `COc1c([C@H]2[C@H](C(=O)Nc3ccc4cn[nH]c(=O)c4c3)O[C@@](C)(C(F)(F)F)[C@H]2C)ccc(F)c1F` (relative stereo) [Example 3, rel-(2R,3S,4S,5R)-3-(3,4-difluoro-2-methoxyphenyl)-4,5-dimethyl-N-4-oxa-3,4-dihydrophthalazin-6-yl)-5-(trifluoromethyl)tetrahydrofuran-2-carboxamide] the same measures were not below 50% and 9 nM.
Turning to `COc1c([C@H]2[C@H](C(=O)Nc3ccc4c(c3)C(=O)NCC4)O[C@@](C)(C(F)(F)F)[C@H]2C)ccc(F)c1F` (relative stereo) [Example 6, rel-(2R,3S,4S,5R)-3-(3,4-difluoro-2-methoxyphenyl)-4,5-dimethyl-N-(1-oxo-1,2,3,4-tetrahydroisoquinolin-7-yl)-5-(trifluoromethyl)tetrahydrofuran-2-carboxamide], in data set [1], the inhibition at 0.1 µM is not below 50%. In addition, the IC50 in data set [2] amounted to 2 nM.
As for `CONC(=O)c1cc(NC(=O)[C@@H]2O[C@@](C)(C(F)(F)F)[C@@H](C)[C@H]2c2ccc(F)c(F)c2OC)ccn1` (relative stereo) [Example 21], the inhibition at 0.1 µM in data set [1] is not below 50%. For the same compound, the midpoint of inhibition in data set [2], the IC50, lay at 26 nM.
For `COc1c([C@H]2[C@H](C(=O)Nc3ccnc(C(N)=O)c3)OC3(C(F)(F)F)CCC23C)ccc(F)c1F` (relative stereo) [Example 59, rel-(2R,3S)-4-({[3-(3,4-difluoro-2-methoxyphenyl)-3a-methyl-5a-(trifluoromethyl)hexahydrocyclobuta[2,1-b]furan-2-yl]carbonyl}amino)pyridin-2-carboxamide], in that order: not below 50% and 2 nM.
Consider `COc1c(C2[C@H](C(=O)Nc3ccc(F)c(S(N)(=O)=O)c3)O[C@@](C)(C(F)(F)F)[C@H]2C)ccc(F)c1F` (relative stereo) [Example 81], for which, in data set [1], the inhibition at 0.1 µM is not below 50%. The compound also returned an IC50 in data set [2] of less than 0.5 nM.
`[2H]C([2H])([2H])NS(=O)(=O)c1cc(NC(=O)[C@@H]2O[C@@](C)(C(F)(F)F)[C@@H](C)[C@H]2c2ccc(F)c(F)c2OC)ccn1` (relative stereo) [Example 82, rel-(2R,3S,4S,5R)-3-(3,4-difluoro-2-methoxyphenyl)-4,5-dimethyl-N-(2-(N-(methyl-d3)sulfamoyl)pyridin-4-yl)-5-(trifluoromethyl)tetrahydrofuran-2-carboxamide]: in data set [1], the inhibition at 0.1 µM was not below 50%. The compound further registered a concentration for half-maximal inhibition (IC50) in data set [2] of less than 1 nM.
For `COc1c([C@H]2[C@H](C(=O)Nc3ccc(F)c(C(N)=O)c3)O[C@]3(C(F)(F)F)CC[C@]23C)ccc(F)c1F` (relative stereo) [Example 85, rel-(1R,3R,4S,5R)—N-(3-carbamoyl-4-fluorophenyl)-4-(3,4-difluoro-2-methoxyphenyl)-5-methyl-1-trifluoromethyl-2-oxabicyclo[3.2.0]heptane-3-carboxamide], in that order: not below 50% and less than 1 nM.
For `COc1c([C@H]2[C@H](C(=O)Nc3ccnc(S(N)(=O)=O)c3)O[C@]3(C(F)(F)F)CC[C@]23C)ccc(F)c1F` (relative stereo) [Example 87, rel-(1R,3R,4S,5R)-4-(3,4-difluoro-2-methoxyphenyl)-5-methyl-N-(2-sulfamoylpyridin-4-yl)-1-trifluoromethyl-2-oxabicyclo[3.2.0]heptane-3-carboxamide] the same measures were not below 50% and 3 nM.
In the case of `COc1c(C2C(C(=O)Nc3ccc(C(N)=O)c(C(N)=O)c3)OC(C)(C(F)(F)F)C2C)ccc(F)c1F` (single isomer, unassigned) [Example 30-2], the “Inhibitory activity (inhibition/% at 100 nM concentration)” value in data set [1] (0.1 µM) is reported as “A (A ≥ 50)”. The IC50 in data set [2] was less than 0.5 nM.
For the compound `COc1c([C@H]2[C@H](C(=O)Nc3ccc(C(N)=O)nc3)O[C@]3(C(F)(F)F)CC[C@]23C)ccc(F)c1F` [Example 97, 5-((1S,3R,4S,5S)-4-(3,4-difluoro-2-methoxyphenyl)-5-methyl-1-(trifluoromethyl)-2-oxabicyclo[3.2.0]heptane-3-formylamino)pyridinecarboxamide], the inhibition at 0.1 µM in data set [1] was not below 50%.
Still for that read-out and setting: the value for `COc1c([C@H]2C(C(=O)Nc3ccc(S(N)(=O)=O)nc3)O[C@]3(C(F)(F)F)CC[C@]23C)ccc(F)c1F` (some centres unmarked) [Example 99] was not below 50%.
On to `COc1cc(NC(=O)c2ccc(-c3ccc(Cl)cc3)o2)cc(OC)c1` [Example A-803467], for which, in data set [3], the “bioavailability (in words)” value is recorded as “low bioavailability” and the “pharmacokinetic data (in words)” value was “poor pharmacokinetic data”. The “selectivity (in words)” value in data set [4] was “poor selectivity”.
In the case of `CNC(=O)c1ccc(-c2cc(Cl)cc(Cl)c2Cl)c(N)n1` [PF-01247324], in data set [3], the “bioavailability (in words)” value is on record as “low bioavailability” and the “pharmacokinetic data (in words)” value is listed as “poor pharmacokinetic data”. Also, in data set [4], the “selectivity (in words)” value is listed as “poor selectivity”.
For `C[C@@H](C(N)=O)[C@H](N)c1nc2ccc(C(C)(C)C)cc2[nH]1` [PF-06305591], in data set [3], the “bioavailability (in words)” value was “low bioavailability” and the “pharmacokinetic data (in words)” value is “poor pharmacokinetic data”. For the same compound, the “selectivity (in words)” value in data set [4] is on record as “poor selectivity”.
Turning to “rel-(2R,3S,4S,5R)-3-(3,4-difluoro-2-methoxyphenyl)-4,5-dimethyl-N-(4-oxo-3H-quinazolin-6-yl)-5-(trifluoromethyl)tetrahydrofuran-2-carboxamide [Example 4]”, in data set [1], the “Inhibitory activity (inhibition/% at 100 nM concentration)” value is “A (A ≥ 50)”.
